System: carrageenan-induced paw edema and hyperalgesia
Assay: Carrageenan paw test for edema and hyperalgesia
Assay type: in vivo, Swiss Webster mice
Description: Injection of carrageenan subcutaneously into the hind foot (paw) of a rat or mouse induces robust inflammation and pain. The inflammatory response begins 1-2 hrs post-carrageenan injection and persists for at least five hours following inoculation. In addition, the animal's inflamed hind paw is sensitive to noxious (hyperalgesia) or innocuous (allodynia) stimuli, compared to the contralateral hind paw. Compounds can be evaluated in this model for anti-hyperalgesia and anti-inflammatory activity. […] It is possible that some compounds will affect the inflamed paw and not affect the responses of the contralateral paw.
Embodiments of the carrageenan foot edema test are performed with materials, reagents and procedures essentially as described by Winter, et al., (Proc. Soc. Exp. Biol. Med., 111, 544 (1962)). Prophylactic and therapeutic embodiments have been developed, and are known in the art. The animals are evaluated for their responsiveness to noxious (paw pinch, plantar test) or innocuous (cold plate, von Frey filaments) stimuli. In the following protocol, mice were used.
Healthy young male Swiss Webster mice in which weight variation of the mice will not exceed ±20% of the mean were used for the study. Animals were divided into four groups of forty, and each group was dosed by oral gavage with either MGBG (BID, 12 hours apart at 30 mg/kg in 5 mL/kg normal saline), dexamethasone as positive control (QD, 1 mg/kg in 5 mL/kg 0.5% methylcellulose), or saline vehicle (BID, 5 mL/kg). […]
Immediately before sub-plantar administration of carrageenan and after 2, 3, 5 and 24 hours post carrageenan, mouse paw volume was measured using the plethysmometer (Ugo Basile). The assessment of edema was expressed as the mean increase in paw volume relative to control.
Prior to sub-plantar administration of carrageenan and after 0.5, 2, 3, 5, and 24 hours post-carrageenan, the latency of withdrawal response was determined by placing mice on a hot plate analgesia meter with surface temperature maintained at 51° C. […] Paw withdrawal latency is calculated as Δt=right paw withdrawal—left paw withdrawal. […]

SMILES: CC(/C=N/NC(=N)N)=N\NC(=N)N [MGBG, 1,1′ [methylethanediylidene]dinitrilodiguanidine]
- efficacy at lower doses (mice, 3 mg/kg PO BID and 10 mg/kg PO BID): observed efficacy
- edema and hyperalgesia (mice, MGBG PO BID (30 mg/kg; alternative 3, 10, 30 mg/kg)): efficacious in reducing edema and hyperalgesia
- top efficacious dose (murine carrageenan-induced paw edema and hyperalgesia models): 30 mg/kg PO BID
